Experiment: recombinant UMI read abundance after kanamycin selection (control-corrected) (log10(CPM+1)); higher = more efficient recombination; extreme values may be limits of the assay; sequences stand for … in AGTGCAGAGAAAATCGGCCAGTTTTCTCTGCCTGCAGTCCGCATGCCGTGGGACCCCTTGGGTTCTAACCTGTTGCCTAGATTTATGCAGCGGACTGCCTTTCTCCCAAAGTGATAAACCGG…AGGTTGGTTTCACT; site = the 11-nt donor
In short: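 Pooled Escherichia coli screen of donor and donor-binding-loop pairs for the IS621 bridge recombinase. Each pair sits with a 12-nt UMI on a plasmid carrying a promoterless kanamycin gene. The library was co-electroporated with a target plasmid encoding a fixed target and T7-inducible recombinase, then plated with IPTG (0.07 mM) plus kanamycin, or unselected, each in two replicates. Recombinant UMIs were PCR-amplified across the donor–target junction and sequenced. Counts became CPM, averaged over replicates, scaled by control-derived factors and reported as log10(CPM+1).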
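Note: IS621 bridge recombinase in Escherichia coli cells against a fixed T5 target plasmid.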

Sequence	recombinant UMI read abundance (log10)
CCTTTTACATGGACCGGTTTTCCCGGTAATCCGTATTTGCT (site CCATTTACTAG)	0
CCTTTTACATGGACCGGTTTTCCCGGTAATCCGTATTTGCT (site CCCTTTACTAG)	0
CCTTTTACATGGACCGGTTTTCCCGGTAATCCGTATTTGCT (site CCGTTTACTAG)	0.00369
CCTTTTACATGGACCGGTTTTCCCGGTAATCCGTATTTGCT (site CCTTTTACTAG)	0
CGAAATCCATGGACCGGTTTTCCCGGTAATCCGTATTTGCT (site CGAAATCCTAG)	0.783
CGAAATCCATGGACCGGTTTTCCCGGTAATCCGTATTTGCT (site CGGAATCCTAA)	0
CGAAATCCATGGACCGGTTTTCCCGGTAATCCGTATTTGTA (site CGAAATCCTTA)	1.11
CGAAATCCATGGACCGGTTTTCCCGGTAATCCGTATTTGTA (site CGGAATCCTAA)	0.00383
CGAAATCCATGGACCGGTTTTCCCGGTAATCCGTATTTGTT (site CGAAATCCTAA)	0.953
CGAAATCCATGGACCGGTTTTCCCGGTAATCCGTATTTGTT (site CGCAATCCTAA)	0
CGAAATCCATGGACCGGTTTTCCCGGTAATCCGTATTTGTT (site CGGAATCCTAA)	0
CGAAATCCATGGACCGGTTTTCCCGGTAATCCGTATTTGTT (site CGTAATCCTAA)	0
CGAAATTCATGGACCGGTTTTCCCGGTAATCCGTATTTGTT (site CGAAATTCTAA)	0.945
CGAAATTCATGGACCGGTTTTCCCGGTAATCCGTATTTGTT (site CGGAATCCTAA)	0
CGAACACCATGGACCGGTTTTCCCGGTAATCCGTATTTGCT (site CGAACACCTAG)	0
CGAACACCATGGACCGGTTTTCCCGGTAATCCGTATTTGCT (site CGATCATCTAG)	0
CGAACGTCATGGACCGGTTTTCCCGGTAATCCGTATTTGCT (site CGAACGTCTAG)	2.87
CGAACGTCATGGACCGGTTTTCCCGGTAATCCGTATTTGCT (site CGATCATCTAG)	0
CGAAGAGCATGGACCGGTTTTCCCGGTAATCCGTATTTGAC (site CGAAGAGCTGT)	2.51
CGAAGGGCATGGACCGGTTTTCCCGGTAATCCGTATTTGGT (site CGAAGGGCTAC)	1.32
CGAAGTACATGGACCGGTTTTCCCGGTAATCCGTATTTGCG (site CGAAGTACTCG)	2.12
CGAATACCATGGACCGGTTTTCCCGGTAATCCGTATTTGTA (site CGAATACCTTA)	0
CGAATATCATGGACCGGTTTTCCCGGTAATCCGTATTTGCG (site CGAATATCTCG)	2.99
CGAATCGCATGGACCGGTTTTCCCGGTAATCCGTATTTGAT (site CGAATCGCTAT)	2.72
CGAATGGCATGGACCGGTTTTCCCGGTAATCCGTATTTGCG (site GAGGGCACTAT)	0.0326

Sequence	recombinant UMI read abundance (log10)
CGACCAACATGGACCGGTTTTCCCGGTAATCCGTATTTGCT (site CGACCAACTAG)	2.28
CGACCAACATGGACCGGTTTTCCCGGTAATCCGTATTTGCT (site CGATCATCTAG)	0
CGACCCGCATGGACCGGTTTTCCCGGTAATCCGTATTTGCG (site CGACCCGCTCG)	0.0234
CGACGACCATGGACCGGTTTTCCCGGTAATCCGTATTTGAA (site CGACGACCTTT)	0.00772
CGACGGTCATGGACCGGTTTTCCCGGTAATCCGTATTTGCC (site TATGCCGCTAT)	0
CGACTAACATGGACCGGTTTTCCCGGTAATCCGTATTTGGA (site CAACTAACTTC)	1.44
CGACTAACATGGACCGGTTTTCCCGGTAATCCGTATTTGGA (site CCACTAACTTC)	0.226
CGACTAACATGGACCGGTTTTCCCGGTAATCCGTATTTGGA (site CGACTAACTTC)	1.74
CGACTAACATGGACCGGTTTTCCCGGTAATCCGTATTTGGA (site CTACTAACTTC)	0.554
CGAGAACCATGGACCGGTTTTCCCGGTAATCCGTATTTGGG (site CGAGAACCTCC)	0
CGAGAACCATGGACCGGTTTTCCCGGTAATCCGTATTTGGG (site CGAGCACCTCC)	0.00673
CGAGAACCATGGACCGGTTTTCCCGGTAATCCGTATTTGGG (site CGAGGACCTCC)	0.0198
CGAGAACCATGGACCGGTTTTCCCGGTAATCCGTATTTGGG (site CGAGTACCTCC)	0.00635
CGAGAAGCATGGACCGGTTTTCCCGGTAATCCGTATTTGCT (site CGAGAAGCTAG)	2.17
CGAGAAGCATGGACCGGTTTTCCCGGTAATCCGTATTTGTC (site CGAGAAGCTGA)	2.25
CGAGAGTCATGGACCGGTTTTCCCGGTAATCCGTATTTGCC (site CGAGAGTCTGG)	3.37
CGAGAGTCATGGACCGGTTTTCCCGGTAATCCGTATTTGCC (site CGCGAGTCTGG)	0
CGAGAGTCATGGACCGGTTTTCCCGGTAATCCGTATTTGCC (site CGGGAGTCTGG)	1.46
CGAGAGTCATGGACCGGTTTTCCCGGTAATCCGTATTTGCC (site CGTGAGTCTGG)	2.4
CGAGCGACATGGACCGGTTTTCCCGGTAATCCGTATTTGTA (site CGAGCGACTTA)	2.3
CGAGGACCATGGACCGGTTTTCCCGGTAATCCGTATTTGAA (site CGAGGACCTTT)	0.0106
CGAGGACCATGGACCGGTTTTCCCGGTAATCCGTATTTGGC (site CGAGGACCTAC)	0.0204
CGAGGACCATGGACCGGTTTTCCCGGTAATCCGTATTTGGC (site CGAGGACCTCC)	0.0246
CGAGGACCATGGACCGGTTTTCCCGGTAATCCGTATTTGGC (site CGAGGACCTGC)	0
CGAGGACCATGGACCGGTTTTCCCGGTAATCCGTATTTGGC (site CGAGGACCTTC)	0.013

Sequence	recombinant UMI read abundance (log10)
CGAGGCCCATGGACCGGTTTTCCCGGTAATCCGTATTTGGG (site CGAGGACCTCC)	0.0197
CGAGGCCCATGGACCGGTTTTCCCGGTAATCCGTATTTGGG (site CGAGGCCCTCC)	0.0196
CGAGGCCCATGGACCGGTTTTCCCGGTAATCCGTATTTGGG (site CGAGGGCCTCC)	0.016
CGAGGCCCATGGACCGGTTTTCCCGGTAATCCGTATTTGGG (site CGAGGTCCTCC)	0.00542
CGAGTATCATGGACCGGTTTTCCCGGTAATCCGTATTTGCA (site ACAGTATCTTG)	2.08
CGAGTATCATGGACCGGTTTTCCCGGTAATCCGTATTTGCA (site CGAGTATCTTG)	3
CGAGTCCCATGGACCGGTTTTCCCGGTAATCCGTATTTGTG (site GTCAGTTCTAG)	0
CGATAAACATGGACCGGTTTTCCCGGTAATCCGTATTTGCT (site CGATAAACTAG)	2.83
CGATAAACATGGACCGGTTTTCCCGGTAATCCGTATTTGCT (site CGATCATCTAG)	0
CGATACACATGGACCGGTTTTCCCGGTAATCCGTATTTGCT (site CGATACACTAG)	2.54
CGATAGTCATGGACCGGTTTTCCCGGTAATCCGTATTTGCC (site CGATAGTCTGG)	2.66
CGATCAACATGGACCGGTTTTCCCGGTAATCCGTATTTGCG (site CGATCAACTCG)	0.894
CGATCAACATGGACCGGTTTTCCCGGTAATCCGTATTTGCG (site CGATCATCTAG)	0
CGATCAGCATGGACCGGTTTTCCCGGTAATCCGTATTTGTT (site CGATCAGCTAA)	1.59
CGATCAGCATGGACCGGTTTTCCCGGTAATCCGTATTTGTT (site CGATCATCTAG)	0
CGATCCTCATGGACCGGTTTTCCCGGTAATCCGTATTTGCG (site CGATCATCTAG)	0
CGATCCTCATGGACCGGTTTTCCCGGTAATCCGTATTTGCG (site CGATCCTCTCG)	2.64
CGATCCTCATGGACCGGTTTTCCCGGTAATCCGTATTTGCT (site CGATCATCTAG)	0
CGATCCTCATGGACCGGTTTTCCCGGTAATCCGTATTTGCT (site CGATCCTCTAG)	2.82
CGATCCTCATGGACCGGTTTTCCCGGTAATCCGTATTTGCT (site CGATCGTCTAG)	0
CGATCCTCATGGACCGGTTTTCCCGGTAATCCGTATTTGCT (site CGATCTTCTAG)	0
CGATCGACATGGACCGGTTTTCCCGGTAATCCGTATTTGAT (site CGATCGACTAA)	0.0179
CGATCGACATGGACCGGTTTTCCCGGTAATCCGTATTTGAT (site CGATCGACTAC)	0
CGATCGACATGGACCGGTTTTCCCGGTAATCCGTATTTGAT (site CGATCGACTAG)	0
CGATCGACATGGACCGGTTTTCCCGGTAATCCGTATTTGAT (site CGATCGACTAT)	0.807

— the supplement of paper PMC11208160
